Data taken from the NIST ThermoML archive (doi:10.1016/j.fluid.2010.06.020).

Conditions: Liquid, Ebulliometric method (Recirculating still)

CCC(C)(C)O [2-methylbutan-2-ol]
Conditions | vapor or sublimation pressure [kPa]
335.75 K | 19.33
339.03 K | 22.66
341.93 K | 26
344.54 K | 29.33
346.91 K | 32.66
349.1 K | 36
351.52 K | 40
353.75 K | 44
355.83 K | 48
357.78 K | 52
359.9 K | 56.66
361.88 K | 61.33
364.01 K | 66.66
366.01 K | 71.99
367.9 K | 77.33
369.69 K | 82.66
371.8 K | 89.33
373.79 K | 95.99
374.56 K | 98.66

CCC(C)CO (stereo not given) [2-methyl-1-butanol]
Conditions | vapor or sublimation pressure [kPa]
345.51 K | 9.333
350.44 K | 12
354.51 K | 14.66
358.02 K | 17.33
361.8 K | 20.66
365.12 K | 24
368.62 K | 28
371.74 K | 32
374.56 K | 36
377.13 K | 40
379.5 K | 44
382.05 K | 48.66
384.41 K | 53.33
386.92 K | 58.66
389.23 K | 63.99
391.4 K | 69.33
393.43 K | 74.66
395.35 K | 79.99
397.17 K | 85.33
398.9 K | 90.66
400.96 K | 97.33

CCC(O)CC [3-pentanol]
Conditions | vapor or sublimation pressure [kPa]
342.02 K | 14.66
345.41 K | 17.33
348.4 K | 20
351.07 K | 22.66
354.07 K | 26
356.77 K | 29.33
359.24 K | 32.66
360.62 K | 34.66
362.79 K | 38
364.81 K | 41.33
367.06 K | 45.33
369.16 K | 49.33
371.13 K | 53.33
372.99 K | 57.33
374.75 K | 61.33
376.95 K | 66.66
379.02 K | 71.99
380.97 K | 77.33
382.82 K | 82.66
385 K | 89.33
387.06 K | 95.99
387.65 K | 97.99

CC(C)C(C)O (stereo not given) [3-methyl-2-butanol]
Conditions | vapor or sublimation pressure [kPa]
352.84 K | 28.66
355.33 K | 32
357.63 K | 35.33
359.76 K | 38.66
361.74 K | 42
363.6 K | 45.33
365.69 K | 49.33
367.65 K | 53.33
369.5 K | 57.33
371.24 K | 61.33
372.9 K | 65.33
374.99 K | 70.66
376.95 K | 75.99
378.81 K | 81.33
380.58 K | 86.66
382.26 K | 91.99
383.87 K | 97.33
384.45 K | 99.33

CC(C)CCO [3-methylbutan-1-ol]
Conditions | vapor or sublimation pressure [kPa]
366.27 K | 22.66
369.95 K | 26.66
373.24 K | 30.66
376.14 K | 34.66
379.65 K | 40
382.78 K | 45.33
385.62 K | 50.66
388.23 K | 55.99
390.64 K | 61.33
392.88 K | 66.66
395.48 K | 73.33
397.9 K | 79.99
400.18 K | 86.66
402.32 K | 93.33
403.77 K | 97.99

CCCC(C)O (stereo not given) [pentan-2-ol]
Conditions | vapor or sublimation pressure [kPa]
350.91 K | 18.66
353.74 K | 21.33
356.29 K | 24
358.61 K | 26.66
361.26 K | 30
363.69 K | 33.33
365.92 K | 36.66
368 K | 40
370.31 K | 44
372.45 K | 48
374.46 K | 52
376.35 K | 55.99
378.13 K | 59.99
380.36 K | 65.33
382.45 K | 70.66
384.42 K | 75.99
386.27 K | 81.33
388.47 K | 87.99
390.53 K | 94.66
391.32 K | 97.33
